Where a name gives a salt, the structure may show the parent alone. No end group written: not given here.
Experiments:
[1] = molecular target: GST-tagged CH1 domain of human p300 (aa residues 323-423) (Homo sapiens, UniProt Q09472); assay: SPR binding to immobilized p300-CH1-GST
p300-CH1-GST fusion = p300-CH1-GST fusion (Homo sapiens, UniProt Q09472); assay: CD spectroscopy of p300-CH1-GST fold; conditions: CD spectra
[2] = molecular target: p300-CH1-GST/HIF-1α C-TAD complex (Homo sapiens, UniProt Q09472); assay: Fluorescence polarization competition assay; type: binding
MCF7 cells = assay: Cell viability assay; type: cell-based; conditions: Homo sapiens, MCF7, 24 h
HIF-1α levels in cells = assay: Western blot of HIF-1α levels; type: cell-based, human; conditions: 200 nM, 300 μM DFO
mice = conditions: cited from earlier work
[3] = tested on: hypoxia-induced gene expression in MCF7 cells; assay: Gene expression profiling with Affymetrix Human Gene ST 1.0 microarrays; type: cell-based; conditions: 300 μM DFO
[4] = molecular target: p300-CH1-GST fusion protein (GST-tagged CH1 domain of human p300, aa residues 323-423) (human, UniProt Q09472 323-423); assay: fluorescence polarisation
Sequence of p300-CH1-GST fusion protein (GST-tagged CH1 domain of human p300, aa residues 323-423) (Q09472 323-423): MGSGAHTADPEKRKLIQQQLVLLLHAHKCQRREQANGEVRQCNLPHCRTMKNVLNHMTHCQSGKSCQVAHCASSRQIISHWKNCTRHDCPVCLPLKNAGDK

Sequence of GST-tagged CH1 domain of human p300 (aa residues 323-423) (Q09472 323-423): as above
Sequence of p300-CH1-GST/HIF-1α C-TAD complex (Q09472 323-423, one chain of several): as the sequence (Q09472 323-423) above
Sequence of p300-CH1-GST fusion (Q09472 323-423): as above

**Q.** For `CN1C(=O)[C@]2(Cc3cn([C@]45C[C@@]67SS[C@@](CO)(C(=O)N6[C@H]4Nc4ccccc45)N(C)C7=O)c4ccccc34)SS[C@@]1(CO)C(=O)N2C` [compound 2, chetomin], which Kd [1] is on record?
**A.** 540 nM

**Q.** And the “off-rate (Kd)” value ([1]; SPR, 100 μM DTT)?
**A.** 0.0033 s⁻¹

**Q.** And the “concentration causing structural changes / unfolding of p300-CH1-GST” value (p300-CH1-GST fusion)?
**A.** 1 µM

**Q.** And the IC50 [2]?
**A.** 540 ± 180 nM

**Q.** What about the GI50 (MCF7 cells) of the same molecule?
**A.** 180 ± 40 nM

**Q.** And the “levels of HIF-1α in hypoxic cells” value (HIF-1α levels in cells)?
**A.** remained constant

**Q.** And the “effect on vascularization in mice” value (mice)?
**A.** inhibit vascularization in mice

**Q.** Which “number of transcripts affected (2-fold or more) by DFO treatment alone” value [3] does the source give for `CC(=O)N(O)CCCCCNC(=O)CCC(=O)N(O)CCCCCNC(=O)CCC(=O)N(O)CCCCCN` [DFO, desferrioxamine mesylate] here?
**A.** 580

**Q.** What about the “number of transcripts induced by at least 4-fold (P < 0.01)” value [3] of the same molecule?
**A.** 43

**Q.** Does SMDESGLPQLTSYDCEVNAPIQGSRNLLQGEELLRALDQVN (peptide, UniProt Q16665 786-826, looked up, also: fluorescein label, position not given here) [fluorescein-labeled C-TAD domain of human HIF-1α (residues 786-826)] bind [4]?
**A.** binds

Source: PMC2796602 (Journal of the American Chemical Society, 2009)
